In the NIST ThermoML archive (doi:10.1016/j.jct.2017.05.028):

Test: wn = mass fraction of the nth substance listed
Details: 101 kPa, Liquid, digital holographic interferometry

SMILES | binary diffusion coefficient (288.15 K, w1 = 0.05) [m2/s] | binary diffusion coefficient (288.15 K, w1 = 0.15) [m2/s] | binary diffusion coefficient (288.15 K, w1 = 0.25) [m2/s] | binary diffusion coefficient (288.15 K, w1 = 0.35) [m2/s] | binary diffusion coefficient (288.15 K, w1 = 0.45) [m2/s] | binary diffusion coefficient (288.15 K, w1 = 0.55) [m2/s] | binary diffusion coefficient (288.15 K, w1 = 0.65) [m2/s] | binary diffusion coefficient (288.15 K, w1 = 0.75) [m2/s] | binary diffusion coefficient (288.15 K, w1 = 0.85) [m2/s] | binary diffusion coefficient (288.15 K, w1 = 0.95) [m2/s] | binary diffusion coefficient (298.15 K, w1 = 0.05) [m2/s] | binary diffusion coefficient (298.15 K, w1 = 0.15) [m2/s] | binary diffusion coefficient (298.15 K, w1 = 0.25) [m2/s] | binary diffusion coefficient (298.15 K, w1 = 0.35) [m2/s] | binary diffusion coefficient (298.15 K, w1 = 0.45) [m2/s] | binary diffusion coefficient (298.15 K, w1 = 0.55) [m2/s] | binary diffusion coefficient (298.15 K, w1 = 0.65) [m2/s] | binary diffusion coefficient (298.15 K, w1 = 0.75) [m2/s] | binary diffusion coefficient (298.15 K, w1 = 0.85) [m2/s] | binary diffusion coefficient (298.15 K, w1 = 0.95) [m2/s] | other results
CCCCO [butan-1-ol] + CCCCCCC | 1.86e-09 | 1.39e-09 | 1.04e-09 | 8.03e-10 | 6.87e-10 | 6.25e-10 | 6.28e-10 | 6.75e-10 | 7.03e-10 | 7.54e-10 | 2.09e-09 | 1.63e-09 | 1.26e-09 | 1.06e-09 | 9.24e-10 | 8.84e-10 | 8.71e-10 | 9.06e-10 | 9.54e-10 | 1.01e-09 | binary diffusion coefficient (308.15 K, w1 = 0.05): 2.4e-09 m2/s; binary diffusion coefficient (308.15 K, w1 = 0.15): 1.92e-09 m2/s; binary diffusion coefficient (308.15 K, w1 = 0.25): 1.57e-09 m2/s; binary diffusion coefficient (308.15 K, w1 = 0.35): 1.33e-09 m2/s; binary diffusion coefficient (308.15 K, w1 = 0.45): 1.19e-09 m2/s; binary diffusion coefficient (308.15 K, w1 = 0.55): 1.13e-09 m2/s; binary diffusion coefficient (308.15 K, w1 = 0.65): 1.11e-09 m2/s; binary diffusion coefficient (308.15 K, w1 = 0.75): 1.13e-09 m2/s; binary diffusion coefficient (308.15 K, w1 = 0.85): 1.2e-09 m2/s; binary diffusion coefficient (308.15 K, w1 = 0.95): 1.26e-09 m2/s; binary diffusion coefficient (318.15 K, w1 = 0.05): 2.73e-09 m2/s; binary diffusion coefficient (318.15 K, w1 = 0.15): 2.24e-09 m2/s; binary diffusion coefficient (318.15 K, w1 = 0.25): 1.87e-09 m2/s; binary diffusion coefficient (318.15 K, w1 = 0.35): 1.6e-09 m2/s; binary diffusion coefficient (318.15 K, w1 = 0.45): 1.49e-09 m2/s; binary diffusion coefficient (318.15 K, w1 = 0.55): 1.42e-09 m2/s; binary diffusion coefficient (318.15 K, w1 = 0.65): 1.4e-09 m2/s; binary diffusion coefficient (318.15 K, w1 = 0.75): 1.44e-09 m2/s; binary diffusion coefficient (318.15 K, w1 = 0.85): 1.48e-09 m2/s; binary diffusion coefficient (318.15 K, w1 = 0.95): 1.54e-09 m2/s
CCCCCO [pentan-1-ol] + CCCCCCC | 1.65e-09 | 1.19e-09 | 8.88e-10 | 7.12e-10 | 5.95e-10 | 5.43e-10 | 5.49e-10 | 5.77e-10 | 6.09e-10 | 6.5e-10 | 1.88e-09 | 1.43e-09 | 1.13e-09 | 9.36e-10 | 8.38e-10 | 7.8e-10 | 7.86e-10 | 8.09e-10 | 8.4e-10 | 8.76e-10 | binary diffusion coefficient (308.15 K, w1 = 0.05): 2.11e-09 m2/s; binary diffusion coefficient (308.15 K, w1 = 0.15): 1.69e-09 m2/s; binary diffusion coefficient (308.15 K, w1 = 0.25): 1.38e-09 m2/s; binary diffusion coefficient (308.15 K, w1 = 0.35): 1.18e-09 m2/s; binary diffusion coefficient (308.15 K, w1 = 0.45): 1.07e-09 m2/s; binary diffusion coefficient (308.15 K, w1 = 0.55): 1.02e-09 m2/s; binary diffusion coefficient (308.15 K, w1 = 0.65): 9.99e-10 m2/s; binary diffusion coefficient (308.15 K, w1 = 0.75): 1.04e-09 m2/s; binary diffusion coefficient (308.15 K, w1 = 0.85): 1.07e-09 m2/s; binary diffusion coefficient (308.15 K, w1 = 0.95): 1.12e-09 m2/s; binary diffusion coefficient (318.15 K, w1 = 0.05): 2.42e-09 m2/s; binary diffusion coefficient (318.15 K, w1 = 0.15): 1.96e-09 m2/s; binary diffusion coefficient (318.15 K, w1 = 0.25): 1.64e-09 m2/s; binary diffusion coefficient (318.15 K, w1 = 0.35): 1.42e-09 m2/s; binary diffusion coefficient (318.15 K, w1 = 0.45): 1.33e-09 m2/s; binary diffusion coefficient (318.15 K, w1 = 0.55): 1.29e-09 m2/s; binary diffusion coefficient (318.15 K, w1 = 0.65): 1.28e-09 m2/s; binary diffusion coefficient (318.15 K, w1 = 0.75): 1.31e-09 m2/s; binary diffusion coefficient (318.15 K, w1 = 0.85): 1.36e-09 m2/s; binary diffusion coefficient (318.15 K, w1 = 0.95): 1.38e-09 m2/s
